Row | melting point [°C] | SMILES
1 | > 250 | Cn1c(=O)c2ccc(C#N)cc2n2nc(-c3ccnc(C(F)(F)F)c3)cc12 [Example 75, 4-Methyl-5-oxo-2-(2-trifluoromethyl-pyridin-4-yl)-4,5-dihydro-pyrazolo[1,5-a]quinazoline-8-carbonitrile]
2 | > 250 | Cn1c(=O)c2ccc(C(=O)O)cc2n2nc(-c3ccnc(C(F)(F)F)c3)cc12 [Example 76, 4-Methyl-5-oxo-2-(2-trifluoromethyl-pyridin-4-yl)-4,5-dihydro-pyrazolo[1,5-a]quinazoline-8-carboxylic Acid]
3 | 128 to 134 | Cn1c(=O)c2ccc(OCCO)cc2n2nc(-c3ccnc(C(F)(F)F)c3)cc12 [Example 83, 8-(2-Hydroxy-ethoxy)-4-methyl-2-(2-trifluoromethyl-pyridin-4-yl)-4H-pyrazolo[1,5-a]quinazolin-5-one]
4 | > 250 | COc1cccc2c(=O)n(C)c3cc(-c4ccnc(C(F)(F)F)c4)nn3c12 [Example 86, 9-Methoxy-4-methyl-2-(2-trifluoromethyl-pyridin-4-yl)-4H-pyrazolo[1,5-a]quinazolin-5-one]
5 | 235 to 245 | COc1ccc2c(c1)c(=O)n(C)c1cc(-c3ccnc(F)c3)nn21 [Example 101, 2-(2-Fluoro-pyridin-4-yl)-7-methoxy-4-methyl-4H-pyrazolo[1,5-a]quinazolin-5-one]
6 | 223 to 226 | Cn1c(=O)c2ccc(OCCCO)cc2n2nc(-c3ccnc(C(F)(F)F)c3)cc12 [Example 111, 8-(3-Hydroxy-propoxy)-4-methyl-2-(2-trifluoromethyl-pyridin-4-yl)-4H-pyrazolo[1,5-a]quinazolin-5-one]
7 | 230 to 235 | Cn1c(=O)c2ccc(F)cc2n2nc(-c3ccnc(C4CC4)c3)cc12 [Example 112, 2-(2-Cyclopropyl-pyridin-4-yl)-8-fluoro-4-methyl-4H-pyrazolo[1,5-a]quinazolin-5-one]
8 | > 250 | Cn1c(=O)c2ccc(NCC(C)(C)O)cc2n2nc(-c3ccnc(C(F)(F)F)c3)cc12 [Example 126, 8-(2-Hydroxy-2-methyl-propylamino)-4-methyl-2-(2-trifluoromethyl-pyridin-4-yl)-4H-pyrazolo[1,5-a]quinazolin-5-one]

The next lines start with the molecule.

Row | SMILES | melting point [°C]
9 | Cn1c(=O)c2ccc(C3CCCC3)cc2n2nc(-c3ccnc(C(F)(F)F)c3)cc12 [Example 74, 8-Cyclopentyl-4-methyl-2-(2-trifluoromethyl-pyridin-4-yl)-4H-pyrazolo[1,5-a]quinazolin-5-one] | 246 to 250
10 | Cn1cc(-c2cc3n(C)c(=O)c4ccccc4n3n2)cn1 [Example 103, 4-Methyl-2-(1-methyl-1H-pyrazol-4-yl)-4H-pyrazolo[1,5-a]quinazolin-5-one] | 195 to 199
11 | Cn1c(=O)c2ccccc2n2nc(-c3ccncc3F)cc12 [Example 107, 2-(3-Fluoro-pyridin-4-yl)-4-methyl-4H-pyrazolo[1,5-a]quinazolin-5-one] | 244 to 247
12 | Cc1cnccc1-c1cc2n(C)c(=O)c3ccccc3n2n1 [Example 109, 4-Methyl-2-(3-methyl-pyridin-4-yl)-4H-pyrazolo[1,5-a]quinazolin-5-one] | 145 to 150
13 | Cn1c(=O)c2cc(F)c(N3CCC34CCC(CO)CC4)cc2n2nc(-c3ccnc(C(F)(F)F)c3)cc12 (centres unmarked) [Example 123, 7-Fluoro-8-(7-hydroxymethyl-1-aza-spiro[3.5]non-1-yl)-4-methyl-2-(2-trifluoromethyl-pyridin-4-yl)-4H-pyrazolo[1,5-a]quinazolin-5-one] | > 250
14 | Cn1c(=O)c2ccc(N3CCCC(O)C3)cc2n2nc(-c3ccnc(C(F)(F)F)c3)cc12 (centres unmarked) [Example 124, 8-(3-Hydroxy-piperidin-1-yl)-4-methyl-2-(2-trifluoromethyl-pyridin-4-yl)-4H-pyrazolo[1,5-a]quinazolin-5-one] | > 250
